Source: US12502365B2 (Instytut Biologii Doswiadczalnej Im. Marcelego Nenckiego …, priority 2019, dated 2025)

Key:
[1] = target: T1, MMP-9 (Rattus norvegicus, UniProt P50282); assay: Inhibition of MMP-9-dependent nectin-3 cleavage in glutamate-stimulated hippocampal neuron cultures (immunoblotting); format: cell-based
T1 construct: stimulate neuronal cell activity leading to release of MMP-9; endogenous in cells; host or cells: primary rat hippocampal neurons, 7 DIV
Experimental: In the first non-limiting example, the compound was tested for specific inhibition of MMP-9 activity in vitro. Hippocampal neurons were prepared from newborn Wistar rats at postnatal day P0 as described previously (Habas et al., 2006). The culture medium consisted of Neurobasal Medium supplemented with B27 (Invitrogen) and 1 mM 1-glutamine, 100 U ml^−1 penicillin and 0.1 mg ml^−1 streptomycin. The cells used for these experiments were 7 DIV. […] The control cultures consisted of neurons stimulated with glutamate and of glutamate in the presence of inhibitor I (an inhibitor with proven inhibitory effect on MMP-9 activity). […] The MMP-9 activity level was evaluated by the cleavage of MMP-9 substrate-nectin-3.
Nectin-3 is a transmembrane protein predominantly expressed at post-synaptic part of the synapse (van der Kooij et al., 2014). […] We evaluated the basic amount of nectin-3 (by immunoblotting) and the presence of a cut fragment of nectin-3 (approximately 17 kDa).
For immunoblotting, cultures were homogenized in a lysis buffer containing 1 mM MgCl2, 5 mM HEPES (pH=7.4), 320 mM sucrose, 1 mM Na2F, and cOmplete™ Protease Inhibitor Cocktail (Roche) using Dounce glass homogenizer. Protein concentration was measured using BCA Protein Assay Kit (Pierce). […] For the quantification of individual bands, the scan of the photographic film was analyzed by densitometry using GeneTools software (Syngene).

[2] = target: T2, MMP-9 (Mus musculus, UniProt P41245); assay: MMP-9-dependent nectin-3 cleavage in hippocampus after kainic acid injection (immunoblotting); format: in vivo, mice; details: 9 mg/kg i.p. 1 hour prior to KA; hippocampus 6 hours after KA
T2 construct: strongly associated with the release of MMP-9 from dendritic spines; from tissue; host or cells: mouse hippocampus (in vivo, after kainic acid)
Experimental: In a further nonlimiting example, marimastat was tested in vivo, in a mouse model of epileptogenesis (intra-hippocampal kainic acid injection). […] This is the optimal time allowing for its potential therapeutic effects. […] As a result of the KA injection, strong epileptic seizures were observed due to increased neuronal activity.
The process of developing epileptic seizures evoked by KA (epileptogenesis) is strongly associated with the release of MMP-9 from dendritic spines. […] For this purpose, after 6 hours following KA-injection the hippocampus was isolated and the immunoblotting assay was performed for the presence of cleaved form of nectin-3 protein.

[3] = tested on: mouse model of epileptogenesis (intra-hippocampal kainic acid injection); assay: Functional analysis in mouse model of epileptogenesis (intra-hippocampal kainic acid injection), video-EEG; format: in vivo, mice; details: for duration of the single seizure: P=0.02
Experimental: The functional analysis of therapeutic use of marimastat in mouse model of epileptogenesis (intra-hippocampal kainic acid injection) was performed. Epileptogenesis was induced by the administration of kainic acid directly into the CA1 region of the hippocampus, during stereotactic surgeries. Coordinates for CA1 were chosen according to Paxinos Mouse Brain Atlas. […] The mice were injected intraperitoneally (9 mg/kg b.w.), 3 times after administration of kainic acid at: • 1. 30 minutes • 2. 6 hours • 3. […] Each group consisted of 6 animals; the experiment was performed in two repetitions. Simultaneously, just after KA injections, mice were implanted with cranial and hippocampal electrodes for EEG registration (FIG. 3). […] Injected kainic acid stimulated the degeneration within CA1 and CA3 region, but also led to the changes within dentate gyms area. One of the most important changes observed in the epileptogenesis process was mossy fiber sprouting located in dentate gyms DG. Mossy fiber sprouting is defined as an aberrant sprouting of granule cells axons (mossy fibers) into the inner molecular layer of the dentate gyrus. This process is observed in patients with temporal lobe epilepsy (Buckmaster, 2012). Therefore, hippocampal electrode location was implanted into DG, below the injection site, according to coordinates: The electrode implantation process proceeded according to the following protocol. Stainless steel screw electrodes (Ø1.6 mm, Bilaney Consultants GmbH, Germany) were placed in the skull (Table 3; FIG. 3). A bipolar hippocampal electrode was positioned in the dentate gyms. The 2-week continuous (24 h/7 days) video-EEG (vEEG) monitoring was started immediately after KA injection. Mice were placed in PMMA cages (one mouse per cage) and connected to the recording system with commutators (SL6C, Plastics One Inc., USA). vEEG was performed using the Twin EEG recording system connected to a Comet EEG PLUS with 57-channel amplifier AS40-PLUS (Natus Medical Incorporated, USA) and filtered (high-pass filter cut-off 0.3 Hz, low-pass filter cut off 100 Hz). The behavior of the animals was recorded using a digital camera I-PRO WV-SC385 (Panasonic, Japan). As outcome measures, the present Inventors assessed the occurrence, frequency and duration of spontaneous seizures. An electroencephalographic seizure was defined as a high amplitude (>2× baseline) rhythmic discharge that clearly represented an abnormal EEG pattern that lasted >5 s. The frequency of seizures in each mouse was calculated as the number of seizures per completed EEG recording day or per week. Modified Racine's scale was used in the study (Racine, 1972): The experiment was divided into three parts: • 1) first 24 hours post-KA injection (acute response to injected convulsant) • 2) first week post-KA injection (acute response to injected convulsant) • 3) 4 weeks after KA injection (epileptogenesis upon injected convulsant—chronic changes) In each stage, several parameters were calculated: seizure duration (in seconds), seizure score (according the Racine scale), seizure number (per animal/per day). Additionally, in the first 24 hours, the time between the kainic acid injection and first epileptic seizure was also estimated.

[4] = tested on: MMP-1, MMP-2, MMP-3, MMP-7 and MMP-9; details: cited from earlier work
[5] = humans, oral; cited from earlier work
[6] = single dose up to 800 mg or repeated dose up to 200 mg twice a day for a week; cited from earlier work
[7] = tested on: murine cancer models: melanoma, hemangioma, ovarian carcinoma, colorectal, breast and pancreatic cancer; details: cited from earlier work
[8] = 4 weeks after KA injection, not significant

T1 sequence (P50282 108-708): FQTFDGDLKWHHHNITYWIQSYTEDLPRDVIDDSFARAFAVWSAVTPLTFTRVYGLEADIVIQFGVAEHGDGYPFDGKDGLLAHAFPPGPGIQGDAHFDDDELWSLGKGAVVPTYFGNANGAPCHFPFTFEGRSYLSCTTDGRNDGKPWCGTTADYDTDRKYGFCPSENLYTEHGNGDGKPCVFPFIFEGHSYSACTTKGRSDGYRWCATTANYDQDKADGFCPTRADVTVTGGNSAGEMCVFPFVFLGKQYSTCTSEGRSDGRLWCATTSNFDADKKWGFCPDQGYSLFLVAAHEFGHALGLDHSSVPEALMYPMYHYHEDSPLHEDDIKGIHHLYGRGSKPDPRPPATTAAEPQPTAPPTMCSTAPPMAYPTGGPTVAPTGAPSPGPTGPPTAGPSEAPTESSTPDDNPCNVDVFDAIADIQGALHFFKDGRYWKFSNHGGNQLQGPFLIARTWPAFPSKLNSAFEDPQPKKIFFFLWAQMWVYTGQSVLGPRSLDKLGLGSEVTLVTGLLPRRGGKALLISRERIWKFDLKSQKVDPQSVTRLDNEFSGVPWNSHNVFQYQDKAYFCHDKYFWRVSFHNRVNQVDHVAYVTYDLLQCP
T2 sequence (P41245 108-730): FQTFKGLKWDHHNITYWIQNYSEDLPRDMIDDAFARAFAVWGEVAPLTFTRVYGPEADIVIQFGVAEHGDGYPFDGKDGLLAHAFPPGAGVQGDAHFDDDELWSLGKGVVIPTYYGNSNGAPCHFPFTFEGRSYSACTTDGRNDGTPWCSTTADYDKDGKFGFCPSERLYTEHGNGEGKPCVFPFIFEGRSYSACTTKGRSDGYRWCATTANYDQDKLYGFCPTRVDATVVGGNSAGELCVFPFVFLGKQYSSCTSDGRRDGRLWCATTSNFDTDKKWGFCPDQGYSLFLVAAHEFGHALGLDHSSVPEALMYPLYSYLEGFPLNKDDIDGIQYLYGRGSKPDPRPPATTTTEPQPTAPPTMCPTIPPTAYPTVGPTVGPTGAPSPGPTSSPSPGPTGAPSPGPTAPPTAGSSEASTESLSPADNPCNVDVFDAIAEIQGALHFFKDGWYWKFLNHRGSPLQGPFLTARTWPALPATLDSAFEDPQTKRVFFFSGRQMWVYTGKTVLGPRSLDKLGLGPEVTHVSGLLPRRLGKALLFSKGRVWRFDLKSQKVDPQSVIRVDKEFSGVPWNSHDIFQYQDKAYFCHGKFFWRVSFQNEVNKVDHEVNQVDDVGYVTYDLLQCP

In the case of `CNC(=O)[C@@H](NC(=O)[C@H](CC(C)C)[C@H](O)C(=O)NO)C(C)(C)C` [marimastat, Marimastat], the “MMP-9-dependent cleavage of nectin-3 in vitro” value ([1]; hippocampal dissociated cell cultures, 7 DIV, glutamate 5 μM, 17 kDa nectin-3 fragment) is reported as “inhibits”, the “minimum effective dose inhibiting nectin-3 cleavage” value ([1]; tested at 5 nM, 0.5 μM, 5 μM, 40 μM and 100 μM, 30 min before glutamate) is reported as 0.5 µM and the “MMP-9-dependent nectin-3 enzymatic cleavage in vivo (optical density of the 17 kDa nectin-3 fragment)” value [2] is reported as “specifically reduced”. The “duration of the single seizure” value ([3]; 4 weeks after KA injection) was “inhibited”, the seizure number [3, 8] was “slightly decreased” and the seizure score [3, 8] was “slightly decreased”. The “latency to the 1st seizure” value ([3]; first 24 hours post-KA) was “no differences”, the seizure duration ([3]; first 24 hours post-KA) was “no differences” and the “seizure score (Racine scale)” value ([3]; first 24 hours post-KA, 9 mg/kg i.p. at 30 min, 6 h, 24 h, P=0.0016) was “significantly decreased”. The seizure number ([3]; first 24 hours post-KA, P=0.005) was “significantly decreased”, the seizure number ([3]; first week post-KA) was “did not change” and the seizure score ([3]; first week post-KA) was “did not change”. The “duration of the single seizure” value ([3]; first week post-KA) was “significantly reduced”, the “inhibitory activity against major MMPs” value [4] was “potent broad-spectrum inhibitory activity” and the bioavailability [5] was “high and predictable”. For the same compound, the half-life [5] was “approximately 15 hours”, the “side effects in healthy subjects” value [6] was “did not show any side effects” and the tumor progression [7] was “inhibited tumor progression”.
